Consider 27 compounds from patent US7759373B2, “Large conductance calcium-activated K channel opener” (Mitsubishi Tanabe Pharma Corporation, priority 2001, dated 2010).

pEC50: −log10 of the molar value.

One test has as its system rhythmic bladder contractions induced by substance P. The test is described as follows: Inhibitory effect on the rhythmic bladder contractions induced by substance P in anesthetized rats. As to conditions: time during which frequency of rhythmic contraction was completely inhibited, 0.25 mg/kg of the compound, substance P infusion. It counts as in vivo, rat. The essentials: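 Value is duration (min) of complete inhibition of bladder contractions, ranked A/B/C at 20 and 10 min cut-offs. Intravenous dosing (0.5% Tween 80 saline) in female SD rats under urethane, bladder saline-filled and contractions maintained by substance P infusion, 0.33 μg/kg/min.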
For `O=C(O)Cc1nc(-c2ccc(Cl)cc2)oc1-c1ccco1` [Preparation Example 201], the “100% inhibition time range” value is “C (A≧20>B≧10>C (minute))”. For the compound `COCc1nc(-c2ccc(C#N)cc2)[nH]c1-c1cccnc1` [Preparation example 125], the “100% inhibition time range” value is “C (A≧20>B≧10>C (minute))”. The same measure, in the same setting: next, `CN(C)c1ccc(-c2nc(-c3ccc(Cl)c(F)c3)c(CC(=O)O)s2)cn1` [Preparation Example 585]: “C (A≧20>B≧10>C (minute))”; `O=C(Cc1nc(-c2ccc(F)cc2)oc1-c1ccsc1)Nc1cccnc1` [Preparation Example 376]: “C (A≧20>B≧10>C (minute))”. Still for that read-out and setting: then `COc1cc(-c2oc(-c3ccc(F)cc3)nc2CC(=O)O)ccc1O` [Preparation Example 293], with “C (A≧20>B≧10>C (minute))”.

For the compound `COc1ccc(-c2nc(CC(=O)O)c(-c3ccc(Cl)s3)o2)cc1` [Preparation Example 523], the “100% inhibition time range” value is on record as “B (A≧20>B≧10>C (minute))”. Regarding `O=C(O)Cc1nc(-c2cc3ncccc3s2)oc1-c1ccc(Cl)s1` [Preparation Example 470], the “100% inhibition time range” value is on record as “B (A≧20>B≧10>C (minute))”.

With `CC(C)COc1cc(-c2oc(-c3ccc(F)cc3)nc2CC(=O)O)ccc1O` [Preparation Example 292], the “100% inhibition time range” value is “C (A≧20>B≧10>C (minute))”. On to `Cc1cc(-c2nc(CC(=O)O)c(-c3ccc(Cl)s3)o2)sc1C` [Preparation Example 467], for which the “100% inhibition time range” value is given as “A (A≧20>B≧10>C (minute))”.

Another test concerns isolated rabbit urinary bladder. As to the kind of experiment: Relaxation effect on potassium-induced contraction of isolated rabbit urinary bladder. It counts as cell-based. As to conditions: 50% relaxation concentration; high-K+ (30 mM) pre-contracted rabbit bladder strips; relaxation as percentage of the maximum produced by 0.1 mM papaverine; read-out: EC50 value range. On the procedure: Relaxation effect on potassium-induced contraction of isolated rabbit urinary bladder
Urinary bladder was isolated from Male NZW rabbits (2.0-3.5 kg) and immersed in ice-cold Krebs-bicarbonate solution (in mM: 118 NaCl, 4.7 KCl, 1.2, 2.5 CaCl2, MgSO4, 1.2 KH2PO4, 11 glucose, 25 NaHCO3). The urinary bladder was cut into longitudinal strips (5 mm length, 3-4 mm width) after mucosal layer was removed. Preparations were mounted in organ baths containing 10 ml of Krebs solution maintained at 37° C. and gassed with 95% O2/5% CO2. Accordingly, preparations were stretched with an initial tension of 2.0±1.0 g, and changes in isometric tension were measured by force-displacement transducer. The preparations were pre-contracted by changing organ-bath solution into high-K^+ (30 mM) Krebs solution (in mM: 92.7 NaCl, 30 KCl, 1.2, 2.5 CaCl2, MgSO4, 1.2 KH2PO4, 11 glucose, 25 NaHCO3).
After stable tension was obtained, compounds were added into organ baths cumulatively (10^−8M-10^−4M). The effects of compounds were expressed as a percentage of the maximum relaxation produced by 0.1 mM papaverine. 50% relaxation concentration (EC50) was calculated and EC50 value range (μM) of the compounds of the present invention was shown in the following Table 64 with a rank of A, B or C. These ranges are as mentioned below. 3≧C≧1≧B≧0.5≧A
A word on the pEC50: it is the negative decadic logarithm of the EC50, by convention in mol/L. Take “5-(5-chlorothiophen-2-yl)-2-(4-fluorophenyl)oxazole-4-yl propionic acid sodium salt [Preparation Example 339]”: the pEC50 was 5.52 to 6.00.

The same test, now with this note: Oryctolagus cuniculus; 50% relaxation concentration; high-K+ (30 mM) pre-contracted rabbit bladder strips; relaxation as percentage of the maximum produced by 0.1 mM papaverine; read-out: EC50 value range.
Regarding `CSCc1nc(-c2cccc(F)c2)[nH]c1-c1ccccc1` [Preparation example 131], the pEC50 is 5.52 to 6.00. Still for that read-out and setting: next, `CCc1nc(-c2ccc(C)nc2)[nH]c1-c1ccsc1` [Preparation example 81]: 5.52 to 6.00; `CCCc1nc(-c2ccc(F)cc2)[nH]c1-c1cccc(OC)c1` [Preparation example 96]: 5.52 to 6.00; `CCCc1nc(-c2ccsc2)[nH]c1-c1ccccc1` [Preparation example 33]: at least 6.30. For `CCc1nc(-c2ccc(F)cc2)[nH]c1-c1ccccc1OC` [Preparation example 84], the negative-log EC50 (pEC50) was at least 6.30. For `CCCc1nc(-c2ccccn2)[nH]c1-c1cccs1` [Preparation example 5], the negative-log EC50 (pEC50) is 5.52 to 6.00. The same measure, in the same setting: next, `O=C(O)Cc1[nH]c(-c2cc3ccccc3s2)nc1-c1ccc(Cl)cc1` [Preparation Example 355]: at least 6.30; `CCOC(=O)C(N)c1nc(-c2ccc(F)cc2)oc1-c1ccc(Cl)s1` (stereo not drawn) [Preparation Example 372, ethyl 2-amino-2-[5-(5-chlorothiophen-2-yl)-2-(4-fluorophenyl)-oxazol-4-yl]acetate]: 5.52 to 6.00. Same read-out and setting: next, `CCc1nc(-c2cccc(C#N)c2)[nH]c1-c1cccnc1` [Preparation example 57]: 5.52 to 6.00.

`COc1ccc(-c2nc(-c3ccsc3)c(CC(=O)O)s2)cc1` [Preparation Example 597]: the pEC50 was at least 6.30. Consider `CCCc1nc(-c2ccc(F)cc2)[nH]c1-c1ccccn1` [Preparation example 97], for which the negative-log EC50 (pEC50) is 6.00 to 6.30.

On to `CCc1nc(-c2csc(Br)c2)[nH]c1-c1cccnc1` [Preparation example 19], for which the pEC50 is at least 6.30. For `CCCCc1nc(-c2ccc(F)cc2)[nH]c1-c1ccsc1` [Preparation Example 170], the negative logarithm of the EC50 (pEC50) was 5.52 to 6.00. Same read-out and setting: then `CCCc1nc(-c2ccccc2[N+](=O)[O-])[nH]c1-c1ccccc1` [Preparation example 39], with 5.52 to 6.00; and `CC(C)c1nc(-c2ccc(F)cc2)[nH]c1-c1ccsc1` [Preparation Example 169], with 5.52 to 6.00; and `Fc1ccc(-c2nc(CC(F)(F)F)c(-c3ccsc3)[nH]2)cc1` [Preparation Example 173], with 5.52 to 6.00.

Consider `CCc1nc(-c2ccc(F)cc2)[nH]c1-c1cnccn1` [Preparation example 49], for which the pEC50 was 6.00 to 6.30.
